pIC50: −log10 of the molar value. Like-named read-outs stand apart in the source and are kept apart here.
How the values were obtained:
human HDAC-1 = human HDAC-1 (Homo sapiens, UniProt Q13547); experiment: Inhibition of histone deacetylase enzymatic (HDAC-1) activity; format: biochemical; details: for IC50: Table 5, Boc-Lys(Ac)-AMC substrate, 37° C., 20 minutes, read-out: HDAC-1 (μM), inhibition of histone deacetylase
Protocol: The following protocol was used to assay the compounds of the invention.
The mixture was pre-incubated for 5 minutes at room temperature. The reaction was started by bringing the temperature to 37° C. and adding 16 μl substrate.

[1] = tested on: HCT116 human colon cancer cells; experiment: MTT assay, antiproliferative activity; format: cell-based; details: HCT-116, 72 hours
Protocol: Table 6C provides data on inhibition of HDAC1 enzyme, on antiproliferative activities (HCT116 human colon cancer cells) of the compounds using 3-[4,5-dimethylthiazol-2-yl-2,5-diphenyltetrazolium]bromide (MTT) assay, as well as induction of p21^WAF1/Cip1 tumor suppressor gene.
Compounds at various concentrations were added to human colon cancer HCT116 cells plated in 96-well plates. Cells were incubated for 72 hours at 37° C. in 5% CO2 incubator. MTT (3-[4,5-dimethylthiazol-2-yl]-2,5 diphenyl tetrazolium bromide, Sigma) was added at a final concentration of 0.5 mg/ml and incubated with the cells for 4 hours before an equal volume of solubilization buffer (50% N,N-dimethylformamide, 20% SDS, pH 4.7) was added onto cultured cells. After overnight incubation, solubilized dye was quantified by colorimetric reading at […] using a reference at 630 nM. OD values were converted to cell numbers according to a standard growth curve of the relevant cell line. The concentration which reduces cell numbers to 50% of those of DMSO-treated cells is determined as MTT IC50,

[2] = Table 6A, comparative data for planar substituent, read-out: HDAC-1 activity (μm)
[3] = Table 6B, comparative data for planar substituent, read-out: HDAC-1 Activity

Chain of human HDAC-1 (Q13547 whole entry): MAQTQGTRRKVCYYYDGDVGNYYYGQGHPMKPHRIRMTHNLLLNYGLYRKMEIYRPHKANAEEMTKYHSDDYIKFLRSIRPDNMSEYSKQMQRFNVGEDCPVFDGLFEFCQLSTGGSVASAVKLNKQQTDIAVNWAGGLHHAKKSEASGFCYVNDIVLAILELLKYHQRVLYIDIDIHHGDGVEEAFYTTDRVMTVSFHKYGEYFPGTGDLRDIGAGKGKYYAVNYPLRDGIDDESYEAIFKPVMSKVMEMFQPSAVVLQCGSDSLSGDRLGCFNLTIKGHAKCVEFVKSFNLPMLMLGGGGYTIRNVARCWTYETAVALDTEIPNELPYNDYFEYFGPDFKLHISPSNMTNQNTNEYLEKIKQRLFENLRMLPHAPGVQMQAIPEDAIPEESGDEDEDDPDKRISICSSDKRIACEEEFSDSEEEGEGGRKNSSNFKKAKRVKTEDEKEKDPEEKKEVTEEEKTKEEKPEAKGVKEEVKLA

COc1ccc(NCc2ccc(C(=O)Nc3cc(C(F)(F)F)ccc3N)cc2)cc1OC [A, reference compound]
pIC50 (human HDAC-1; [2]): 4.70 to 6.00

COc1ccc(NCc2ccc(C(=O)Nc3ccccc3N)cc2)cc1OC [AAA, reference compound]
pIC50 (human HDAC-1; [2]): > 6.00 | pIC50 (human HDAC-1; [3]): > 6.00

COc1ccc(NCc2ccc(C(=O)Nc3cc(F)c(F)cc3N)cc2)cc1OC [B, N-(2-amino-4,5-difluorophenyl)-4-{[(3,4-dimethoxyphenyl)amino]methyl}benzamide, reference compound]
IC50 (human HDAC-1): 1 to 20 µM

Nc1ccc(-c2cccs2)cc1NC(=O)c1ccc(CNC(=O)OCc2cccnc2)cc1 [Compound 143a]
pIC50 [1]: > 6.00

Nc1ccc(-c2cccs2)cc1NC(=O)c1ccc(F)cc1 [Compound 143b]
pIC50 (human HDAC-1; Table 6C): > 6.00 | pIC50 [1]: 4.70 to 6.00

Nc1ccc(-c2cccs2)cc1NC(=O)c1ccc(SC(F)(F)F)cc1 [Compound 143c]
pIC50 (human HDAC-1; Table 6C): > 6.00 | pIC50 [1]: 4.70 to 6.00

Cc1ccc(S(=O)(=O)Nc2ccc(/C=C/C(=O)Nc3cc(-c4cccs4)ccc3N)cc2)cc1 [Compound 146]
pIC50 (human HDAC-1; Table 6C): > 6.00 | pIC50 [1]: > 6.00

CN1CCN(C(=O)Nc2ccc(C(=O)Nc3cc(-c4cccs4)ccc3N)cc2)CC1 [Compound 164]
pIC50 (human HDAC-1; Table 6C): > 6.00 | pIC50 [1]: > 6.00

N#Cc1ccc(C(=O)Nc2cc(-c3cccs3)ccc2N)cc1 [Compound 173]
pIC50 (human HDAC-1; Table 6C): > 6.00 | pIC50 [1]: 4.70 to 6.00

COc1cccc(C(=O)Nc2cc(-c3cccs3)ccc2N)c1 [Compound 181]
pIC50 (human HDAC-1; Table 6C): > 6.00 | pIC50 [1]: > 6.00

COc1ccc(NCc2ccc(C(=O)Nc3cc(-c4cccs4)ccc3[N+](=O)[O-])cc2)cc1OC [Cpd 5, 4-[(3,4-dimethoxy-phenylamino)-methyl]-N-(2-nitro-5-thiophen-2-yl-phenyl)-benzamide]
IC50 (human HDAC-1): > 20 µM

COc1ccc(NCc2ccc(C(=O)Nc3cc(-c4cccs4)ccc3N)cc2)cc1OC [Cpd 6, N-[2-amino-5-(2-thienyl)phenyl]-4{[(3,4-dimethoxyphenyl)amino]methyl}benzamide]
IC50 (human HDAC-1): < 1 µM

COc1ccc(NCc2ccc(C(=O)Nc3cc(-c4cccs4)ccc3N)cc2)cc1F [Cpd 12, N-[2-amino-5-(2-thienyl)phenyl]-4{[(3-fluoro-4-methoxyphenyl)amino]methyl}benzamide]
IC50 (human HDAC-1): < 1 µM

COc1ccc(NCc2ccc(C(=O)Nc3ccc(-c4cccs4)cc3[N+](=O)[O-])cc2)cc1OC [Cpd 15, 4-[(3,4-dimethoxy-phenylamino)-methyl]-N-(2-nitro-4-thiophen-2-yl-phenyl)-benzamide]
IC50 (human HDAC-1): > 20 µM

COc1ccc(NCc2ccc(C(=O)Nc3ccc(-c4cccs4)cc3N)cc2)cc1OC [Cpd 16, N-[2-amino-4-(2-thienyl)phenyl]-4-{[(3,4-dimethoxyphenyl)amino]methyl}benzamide]
IC50 (human HDAC-1): 1 to 20 µM

COc1ccc(NCc2ccc(C(=O)Nc3ccc(Br)cc3N)cc2)cc1OC [Cpd 18, N-(2-amino-4-bromophenyl)-4-{[(3,4-dimethoxyphenyl)amino]methyl}benzamide]
IC50 (human HDAC-1): 1 to 20 µM

COc1cc(CN2CCc3ccc(C(=O)Nc4cc(-c5cccs5)ccc4N)cc32)cc(OC)c1OC [Cpd 23, N-[2-amino-5-(2-thienyl)phenyl]-1-(3,4,5-trimethoxybenzyl)indoline-6-carboxamide]
IC50 (human HDAC-1): < 1 µM

COc1cc(NCc2ccc3oc(C(=O)Nc4cc(-c5cccs5)ccc4N)cc3c2)cc(OC)c1OC [Cpd 29, N-[2-amino-5-(2-thienyl)phenyl]-5-{[(3,4,5-trimethoxyphenyl)amino]methyl}-1-benzofuran-2-carboxamide]
IC50 (human HDAC-1): < 1 µM

COc1ccc(NCc2ccc(C(=O)Nc3cccc(-c4cccs4)c3)cc2)cc1OC [Cpd 32, 4-{[(3,4-dimethoxyphenyl)amino]methyl}-N-[3-(2-thienyl)phenyl]benzamide]
IC50 (human HDAC-1): > 20 µM

COc1ccc(NCc2ccc(C(=O)Nc3cc(Cl)c(F)cc3N)cc2)cc1OC [Cpd 35, N-(2-Amino-5-chloro-4-fluoro-phenyl)-4-[(3,4-dimethoxy-phenylamino)-methyl]-benzamide]
IC50 (human HDAC-1): 1 to 20 µM

COc1ccc(NCc2ccc(C(=O)Nc3cc(Cl)c(Cl)cc3N)cc2)cc1OC [Cpd 36, N-(2-Amino-4,5-dichloro-phenyl)-4-[(3,4-dimethoxy-phenylamino)-methyl]-benzamide]
IC50 (human HDAC-1): 1 to 20 µM

Nc1ccc(-c2cccs2)cc1NC(=O)c1ccc(CNc2nccc(-c3cccnc3)n2)cc1 [Cpd 43, N-[2-amino-5-(2-thienyl)phenyl]-4{[(4-pyridin-3-ylpyrimidin-2-yl)amino]methyl}benzamide]
IC50 (human HDAC-1): < 1 µM

CN(C)CCOc1ccc2nc(SCc3ccc(C(=O)Nc4cc(-c5cccs5)ccc4N)cc3)[nH]c2c1 [Cpd 50, N-[2-amino-5-(2-thienyl)phenyl]-4[({6-[2-(dimethylamino)ethoxy]-1H-benzimidazol-2-yl}thio)methyl]benzamide]
IC50 (human HDAC-1): < 1 µM

COc1ccc(NCc2ccc(C(=O)Nc3csc(-c4ccccc4)c3N)cc2)cc1OC [Cpd 61, N-(4-amino-5-phenyl-3-thienyl)-4-{[(3,4-dimethoxyphenyl)amino]methyl}benzamide]
IC50 (human HDAC-1): > 20 µM

COc1ccc(NCc2ccc(C(=O)Nc3csc(-c4cccs4)c3N)cc2)cc1OC [Cpd 62, N-(3-amino-2,2′-bithien-4-yl)-4-{[(3,4-dimethoxyphenyl)amino]methyl}benzamide]
IC50 (human HDAC-1): > 20 µM

COc1cc(NCc2ccc(/C=C/C(=O)Nc3cc(-c4cccs4)ccc3N)cc2)cc(OC)c1OC [Cpd 67, trans-N-[2-amino-5-(2-thienyl)phenyl]-3-(4-{[(3,4,5-trimethoxyphenyl)amino]methyl}phenyl)acrylamide]
IC50 (human HDAC-1): < 1 µM

CCCCc1ccc(N)c(NC(=O)c2ccc(CNc3ccc(OC)c(OC)c3)cc2)c1 [Cpd 68, N-(2-amino-5-butylphenyl)-4-{[(3,4-dimethoxyphenyl)amino]methyl}benzamide]
IC50 (human HDAC-1): 1 to 20 µM

CCCCc1ccc(N)c(NC(=O)c2ccc(C)cc2)c1 [Cpd 69, N-(2-amino-5-butylphenyl)-4-methylbenzamide]
IC50 (human HDAC-1): 1 to 20 µM

CCCCc1ccc(NC(=O)c2ccc(C)cc2)c(N)c1 [Cpd 71, N-(2-amino-4-butylphenyl)-4-methylbenzamide]
IC50 (human HDAC-1): > 20 µM

COc1ccc(NCc2ccc(C(=O)Nc3cc(C#CCO)ccc3N)cc2)cc1OC [Cpd 76, N-[2-amino-5-(3-hydroxyprop-1-yn-1-yl)phenyl]-4-{[(3,4-dimethoxyphenyl)amino]methyl}benzamide]
IC50 (human HDAC-1): < 1 µM

COc1ccc(NCc2ccc(C(=O)Nc3cc(Br)ccc3N)cc2)cc1OC [Cpd 87, N-(2-amino-5-bromophenyl)-4-{[(3,4-dimethoxyphenyl)amino]methyl}benzamide]
IC50 (human HDAC-1): 1 to 20 µM

COc1ccc(NCc2ccc(C(=O)Nc3cc(/C=C/C(N)=O)ccc3N)cc2)cc1OC [Cpd 88, N-{2-amino-5-[(1E)-3-amino-3-oxoprop-1-en-1-yl]phenyl}-4-{[(3,4-dimethoxyphenyl)amino]methyl}benzamide]
IC50 (human HDAC-1): 1 to 20 µM

COc1ccc(NCc2ccc(C(=O)Nc3cc(-c4ccoc4)ccc3N)cc2)cc1OC [Cpd 91, N-[2-amino-5-(3-furanyl)phenyl]-4-{[(3,4-dimethoxyphenyl)amino]methyl}benzamide]
pIC50 (human HDAC-1): > 6.00

COc1ccc(NCc2ccc(C(=O)Nc3c(N)cccc3N)cc2)cc1OC [Cpd 94, N-[2,6-diaminophenyl]-4-{[(3,4-dimethoxyphenyl)amino]methyl}benzamide]
IC50 (human HDAC-1): 1 to 20 µM

COc1cc(NCc2ccc(/C=C/C(=O)Nc3ccccc3N)cc2)cc(OC)c1OC [QQ, reference compound]
pIC50 (human HDAC-1; [3]): 4.70 to 6.00
